Consider 18 molecules from patent publication EP4813992A1, “POLYARYL DERIVATIVE AND USE THEREOF” (Hangzhou HealZen Therapeutics Co., Ltd., priority 2023, dated 2025).

The term AUC denotes the area under the concentration-time curve, a measure of exposure. Low values mean low exposure, high ones high exposure. The DC50 is the concentration at which degradation of the target reaches its halfway point. Higher therefore signals a less potent degrader. As a reminder, the IC50 is the concentration that gives 50% inhibition. A low value points to higher potency.

Molecules are shown by their SMILES. A value given as a limit tells only on which side of the number the result lay.

Data set [1] concerns HPK1/GLK. Description: Selectivity of degrading HPK1/GLK in Jurkat cells (Western blot, 24 h). The format is cell-based. The note with it: HPK1/GLK Fold = DC50 (HPK1) / DC50 (GLK). As to the method:
• 1) Cell plating: Cells are resuscitated, Jurkat cell lines in good growth condition are selected, and cells in the logarithmic growth phase are collected and counted; cell suspensions are seeded into 12 or 24-well plates (20W/well) and incubated overnight at 37°C in a 5% CO2 incubator. • 2) Preparation of compounds to be tested: The compounds to be tested are serially diluted with DMSO according to the experimental requirements and added to the corresponding cell wells, to be incubated at 37°C in a 5% CO2 incubator for 24 h. • 3) Preparation of samples: After the reaction of the compound to be tested is completed, the cells are collected in 1.5 mL EP tubes, and centrifuged at 1500 rpm for 5 min; after the supernatant is discarded, the cells are washed once with PBS, and the BCA protein is quantified and the concentration is adjusted. The adjusted samples are added to 5*loading buffer, boiled at 100°C for 10 minutes, and then the samples are loaded after the temperature is returned to room temperature. • 4) Detection of samples: Electrophoresis is performed using 10% SDS-PAGE with a sample loading volume of 10 µL/well. After the membrane transfer is completed, the samples are blocked with 5% skim milk at room temperature for 1 h. After the residual blocking solution is washed away with TBST, HPK1 and GLK antibodies are added for incubation overnight at 4°C. Washing is performed 3 more times with TBST on a shaker, 5 minutes each time. After washing is completed, the secondary antibody is added for incubation at room temperature in a shaker for 1 hour; then, washing is performed 3 more times with TBST on a shaker, 5 minutes each time; finally, the membrane is soaked in TBST and then subjected to chemiluminescence development. • 5) Data Processing: After the PVDF membrane is developed, the data are exported and plotted using Imang J, and the gray values of the protein bands are analyzed using Image J software; the DC50 curve is fitted using Graphpad Prism 9 software to obtain the results of the selectivity of the compound in degrading HPK1/GLK: HPK1/GLK Fold = DC50 (HPK1) / DC50 (GLK) . Table 3 Selectivity of the compounds of the invention in degrading HPK1/GLK
On the technique in general: Immunoblotting shows a protein as a band on a membrane.

Data set [2] is described as follows: Pharmacokinetic properties in SD rats after gavage. The format is in vivo. Conditions: rat, po, 10 mg/kg, plasma. As to the method: The test compound is administered to SD rats by gavage at a dose of 10 mg/kg. Blood samples are collected at 0 h (before administration) and at 0.083, 0.25, 1, 2, 4, 6, 8, and 24 h after oral gavage administration. The samples are placed in anticoagulant tubes containing heparin sodium, and the mixture is thoroughly vortexed and centrifuged at 6000 rpm for 3 minutes. Plasma concentrations are determined by LC-MS/MS, and relevant pharmacokinetic parameters are calculated using Phoenix WinNonlin 8.2.0 pharmacokinetic software. Table 4 Pharmacokinetic properties of the compounds of the invention

Data set [3] addresses T1, HPK1 kinase (Homo sapiens, UniProt Q92918). Nature of the data set: Activity of degrading HPK1 in Jurkat cells (Western blot, 24 h). The note with it: HPK1 protein degradation. Further details: endogenous in cells; host or cells: Jurkat. In kind it is cell-based. As for the experimental part: The adjusted samples are added to 5*loading buffer, boiled at 100°C for 10 minutes, and then the samples are loaded after the temperature is returned to room temperature. • 4) Detection of samples: Electrophoresis is performed using 10% SDS-PAGE with a sample loading volume of 8 µL/well. After the membrane transfer is completed, the samples are blocked with 5% BSA at room temperature for 1 h. After the residual blocking solution is washed away with TBST, HPK1 and GAPDH antibodies are added for incubation overnight at 4°C. Washing is performed 3 more times with TBST on a shaker, 10 minutes each time. After washing is completed, the secondary antibody is added for incubation at room temperature for 1 hour; then, washing is performed 3 more times with TBST on a shaker, 10 minutes each time; finally, ECL exposure solution is used to develop and image the bands to detect changes in HPK1 protein.

The target in data set [4] is T1, HPK1 kinase. Nature of the data set: Lantha screen assay, inhibitory effect on HPK1 kinase. The format is biochemical. Conditions: initial compound concentration 1 µM. The procedure, abridged: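 Kinase pre-incubated with compound for 10 min at room temperature in 50 mM HEPES pH 7.5, 10 mM MgCl2, 4 mM DTT, 0.01% Tween-20, 0.01% BSA. Fluorescein-PKC substrate plus ATP then added for 90 min, stopped with antibody/EDTA for 60 min. Top concentration 1 µM; IC50 from four-parameter fit of inhibition vs log concentration.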

T1 sequence (Q92918 whole entry): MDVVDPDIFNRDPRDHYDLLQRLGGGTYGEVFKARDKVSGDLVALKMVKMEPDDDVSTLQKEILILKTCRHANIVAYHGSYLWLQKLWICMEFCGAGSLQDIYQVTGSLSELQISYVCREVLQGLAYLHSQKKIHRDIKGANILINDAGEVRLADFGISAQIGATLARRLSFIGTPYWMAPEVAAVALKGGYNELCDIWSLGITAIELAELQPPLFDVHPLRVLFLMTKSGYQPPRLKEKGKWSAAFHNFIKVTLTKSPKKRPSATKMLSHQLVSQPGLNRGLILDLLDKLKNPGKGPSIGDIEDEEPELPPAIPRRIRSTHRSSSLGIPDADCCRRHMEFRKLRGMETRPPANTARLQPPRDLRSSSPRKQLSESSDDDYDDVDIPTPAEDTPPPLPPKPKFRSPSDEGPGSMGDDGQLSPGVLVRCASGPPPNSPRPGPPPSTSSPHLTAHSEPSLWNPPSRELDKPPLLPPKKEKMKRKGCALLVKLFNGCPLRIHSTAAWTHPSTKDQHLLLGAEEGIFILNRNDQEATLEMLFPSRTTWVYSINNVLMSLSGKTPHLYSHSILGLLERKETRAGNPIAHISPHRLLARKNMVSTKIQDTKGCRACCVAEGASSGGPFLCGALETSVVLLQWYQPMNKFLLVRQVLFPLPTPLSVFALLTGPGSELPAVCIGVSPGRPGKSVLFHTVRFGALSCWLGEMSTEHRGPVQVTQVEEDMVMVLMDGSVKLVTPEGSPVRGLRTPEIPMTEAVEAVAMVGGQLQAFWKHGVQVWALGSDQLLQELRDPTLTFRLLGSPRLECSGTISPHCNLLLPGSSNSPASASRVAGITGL

Consider `Cc1cc(-c2cnc3[nH]cc(-c4ccc(C(=O)N(C)C)cc4)c3n2)cc(C)c1C1=CCN(CC2CN(c3ccc(N4CCC(=O)NC4=O)c(F)c3)C2)CC1` [compound 049], for which, in data set [1], the “HPK1/GLK Fold” value is given as “++++ (1000≤Fold)”. In data set [2], the AUC worked out at 9570 ng·h/mL. The molecule further returned a DC50 in data set [3] (class symbols) below 10 nM. Besides, the IC50 in data set [4] is below 10 nM.

Regarding `Cc1cc(-c2cnc3[nH]cc(-c4ccc(C(=O)N(C)C)cc4)c3n2)cc(C)c1C1=CCN(CC2CN(c3ccc(NC4CCC(=O)NC4=O)cc3F)C2)CC1` (stereo not shown) [compound 052], the “HPK1/GLK Fold” value in data set [1] is “++++ (1000≤Fold)”. For the same molecule, in data set [2], the AUC is 6300 ng·h/mL. The molecule further came in with a DC50 in data set [3] (class symbols) below 10 nM.

For `COc1cc(-c2cnc3[nH]cc(-c4ccc(C(=O)N(C)C)cc4)c3n2)ccc1C1=CCN(CC2CN(c3ccc(N4CCC(=O)NC4=O)c(C)c3)C2)CC1` [compound 135], in data set [1], the “HPK1/GLK Fold” value is recorded as “++++ (1000≤Fold)”. Besides, the AUC in data set [2] amounted to 5480 ng·h/mL. In data set [3] (class symbols), this molecule had a DC50 below 10 nM. The molecule also yielded an IC50 in data set [4] below 10 nM.

Take `Cc1cc(N2CC(CN3CC=C(c4c(C)cc(-c5cnc6[nH]cc(-c7ccc(C(=O)N(C)C)cc7)c6n5)cc4C)CC3)C2)ccc1N1CCC(=O)NC1=O` [compound 014]: the “HPK1/GLK Fold” value in data set [1] is given as “++++ (1000≤Fold)”. The AUC in data set [2] was found to be 11400 ng·h/mL. The molecule also had a DC50 in data set [3] (class symbols) below 10 nM. The molecule also displayed an IC50 in data set [4] below 10 nM.

Consider `Cc1cc(-c2cnc3[nH]cc(-c4cnn5c4CCC5)c3n2)cc(C)c1C1=CCN(CC2CN(c3ccc(N4CCC(=O)NC4=O)c(F)c3)C2)CC1` [compound 170], for which, in data set [1], the “HPK1/GLK Fold” value is “++++ (1000≤Fold)”. The molecule further gave an AUC in data set [2] of 12700 ng·h/mL. The molecule further displayed a DC50 in data set [3] (class symbols) below 10 nM. This molecule also gave an IC50 in data set [4] below 10 nM.

Consider `Cc1cc(-c2cnc3[nH]cc(-c4ccc(C(=O)N(C)C)cc4)c3c2)cc(C)c1C1=CCN(CC2CN(c3ccc(N4CCC(=O)NC4=O)c(F)c3)C2)CC1` [compound 144], for which the “HPK1/GLK Fold” value in data set [1] is “++++ (1000≤Fold)”. This molecule also registered an AUC in data set [2] of 5750 ng·h/mL. This molecule also displayed a DC50 in data set [3] (class symbols) below 10 nM. Further, the IC50 in data set [4] was below 10 nM.

In the case of `Cc1cc(-c2cnc3[nH]cc(-c4ccc(C(=O)N(C)C)cc4)c3n2)cc(C)c1C1=CCN(CC2CN(c3ccc(OC4CCC(=O)NC4=O)cn3)C2)CC1` (stereo not shown) [compound 086], the “HPK1/GLK Fold” value in data set [1] is reported as “++++ (1000≤Fold)”. Further, the AUC in data set [2] came to 8500 ng·h/mL. The molecule also came in with an IC50 in data set [4] below 10 nM.

As for `O=C1CCN(c2cc(C(=O)N3CCC(CC4CCN(c5ccc(-c6cnc7[nH]cc(-c8cnn(CC(F)(F)F)c8)c7n6)cn5)CC4)CC3)ccc2Cl)C(=O)N1` [Compound a, reference compound], the area under the curve (AUC) in data set [2] is 3850 ng·h/mL.

Consider `Cc1cc(-c2cnc3[nH]cc(-c4ccc(C(=O)N(C)C)cc4)c3n2)cc(C)c1C1=CCN(CC2CN(c3cc4c(cc3F)c(N3CCC(=O)NC3=O)nn4C)C2)CC1` [compound 062], for which, in data set [1], the “HPK1/GLK Fold” value is listed as “++++ (1000≤Fold)”. The AUC in data set [2] worked out at 9920 ng·h/mL. Besides, in data set [4], the IC50 is below 10 nM.

In the case of `Cc1cc(-c2cnc3[nH]cc(-c4ccc(C(=O)N(C)C)cc4)c3n2)cc(C)c1C1=CCN(CC2CN(c3cnn(C4CCC(=O)NC4=O)c(=O)c3)C2)CC1` (stereo not shown) [compound 085], the “HPK1/GLK Fold” value in data set [1] is reported as “++++ (1000≤Fold)”. Besides, in data set [2], the AUC was determined as 8530 ng·h/mL. In data set [3] (class symbols), this molecule displayed a DC50 below 10 nM. In data set [4], this molecule registered a concentration for half-maximal inhibition (IC50) below 10 nM.

As for `Cc1cc(-c2cnc3[nH]cc(-c4ccc(C(=O)N(C)C)cc4)c3n2)cc(C)c1C1=CCN(CC#Cc2cccc3c(C4CCC(=O)NC4=O)coc23)CC1` (stereo not shown) [compound 024], the “HPK1/GLK Fold” value in data set [1] was “++++ (1000≤Fold)”. This molecule had an AUC in data set [2] of 12000 ng·h/mL. In data set [3] (class symbols), this molecule displayed a DC50 below 10 nM. For the same molecule, the IC50 in data set [4] was below 10 nM.

As to `Cc1cc(-c2cnc3[nH]cc(-c4cncc5c4ncn5C)c3n2)cc(C)c1C1=CCN(CC2CN(c3cc(F)c(C4CCC(=O)NC4=O)c(F)c3)C2)CC1` (stereo not shown) [compound 057], in data set [1], the “HPK1/GLK Fold” value is listed as “++++ (1000≤Fold)”. In data set [2], this molecule registered an AUC of 11300 ng·h/mL. In data set [4], this molecule gave an IC50 below 10 nM.

Take `Cc1cc(-c2c[nH]c3ncc(-c4cc(C)c(C5=CCN(CC6CN(c7ccc(N8CCC(=O)NC8=O)c(F)c7)C6)CC5)c(C)c4)nc23)c(C)s1` [compound 150]: the “HPK1/GLK Fold” value in data set [1] is “++++ (1000≤Fold)”. The same molecule came in with an AUC in data set [2] of 13100 ng·h/mL. Moreover, the DC50 in data set [3] (class symbols) was below 10 nM. The same molecule had an IC50 in data set [4] below 10 nM.

In data set [2], `Cc1cc(N2CC(CN3CC=C(c4c(C)cc(-c5cnc6[nH]cc(-c7cnn(C8CCN(CC(F)F)CC8)c7)c6c5)cc4C)CC3)C2)ccc1N1CCC(=O)NC1=O` [compound 110] displayed an AUC of 4070 ng·h/mL. In data set [3] (numeric values), the DC50 came to 12.4 nM. In data set [4], this molecule came in with an IC50 below 10 nM.

For the molecule `Cc1cc(-c2cnc3[nH]cc(-c4ccc(C(=O)N(C)C)cc4)c3n2)cc(C)c1C1=CCN(CC2CN(c3ccc(C(=O)NC4CCC(=O)NC4=O)nc3)C2)CC1` (stereo not shown) [compound 016], in data set [1], the “HPK1/GLK Fold” value is “++++ (1000≤Fold)”. Moreover, the AUC in data set [2] came to 5000 ng·h/mL. The same molecule gave a DC50 in data set [3] (class symbols) below 10 nM. This molecule also had an IC50 in data set [4] below 10 nM.

Regarding `Cc1cc(-c2cnc3[nH]cc(-c4ccc(C(=O)N(C)C)cc4)c3n2)cc(C)c1C1=CCN(C2CN(c3ccc(C(=O)NC4CCC(=O)NC4=O)cn3)C2)CC1` (stereo not shown) [compound 011], the “HPK1/GLK Fold” value in data set [1] is listed as “++++ (1000≤Fold)”. Besides, the AUC in data set [2] came out at 8990 ng·h/mL. Also, the IC50 in data set [4] was below 10 nM.

Take `Cc1cc(-c2cnc3[nH]cc(-c4ccc(C(=O)N5CC6(COC6)C5)cc4)c3n2)cc(C)c1C1=CCN(CC2CN(c3ccc(N4CCC(=O)NC4=O)c(F)c3)C2)CC1` [compound 105]: the “HPK1/GLK Fold” value in data set [1] is recorded as “++++ (1000≤Fold)”. Further, in data set [3] (class symbols), the DC50 is below 10 nM. Further, the IC50 in data set [4] is below 10 nM.

As for `COCCCN(C)C(=O)c1ccc(-c2c[nH]c3ncc(-c4cc(C)c(C5=CCN(CC6CN(c7ccc(N8CCC(=O)NC8=O)c(C)c7)C6)CC5)c(C)c4)cc23)cc1` [compound 109], the “HPK1/GLK Fold” value in data set [1] is reported as “++++ (1000≤Fold)”. In data set [3] (class symbols), this molecule showed a DC50 below 10 nM. The same molecule registered an IC50 in data set [4] below 10 nM.
